# How the values were obtained:
# Assay in all cases: Agar diffusion method, inhibition zones
# Type in all cases: cell-based
# Propionibacterium acnes = conditions: filter paper with 20 μl test substance; 18 to 24 h at 37° C., anaerobic
# Protocol: (§1) The antibacterial activity of the test substances was tested by the diffusion method on agar plates or the agar dilution method. In this method, a round filter paper of defined diameter is first impregnated with the test solution and then applied to the surface of an agar plate inoculated beforehand with the test microorganisms. The size of the inhibition zones is then determined after defined times. In particular, it is possible by this method to determine the MIC (Minimum Inhibitory Concentration) as the lowest concentration of test substance with which complete inhibition of the microorganisms can be obtained.
# (§2) Agar diffusion method. The inoculum was prepared using a fresh culture in a stationary growth phase (after ca. 18-24 h) in a BHI solution (brain-heart Infusion). The bacterial suspension was adjusted to 0.5 MacFarland units, corresponding to 1.5 10^8 colony-forming units (cfu)/ml; the suspension was then diluted with a sodium chloride solution (1:100) to adjust a value of 1.5 10^6 cfu/ml. Mueller-Hinton agar (Staphylococcus epidermidis, Staphylococcus aureus) and Wilkins-Chalgrens agar containing 5% by weight sheep's blood (Propionibacterium acnes) were then sterilized for 15 mins. at 121° C. and then placed in Petri dishes. 2 to 4 ml of the bacterial suspension were then added to the Petri dishes, followed by drying at room temperature. The filter papers were impregnated with 20 μl of the test substances and applied to the surface of the agar plates. The inoculated Petri dishes were incubated for 18 to 24 h at 37° C. (the Petri dishes containing Propionibacterium acnes under anaerobic conditions) and the antimicrobial activity was then determined by determination of the growth inhibition zones. The results are set out in Table 10 and represent the diameters of the inhibition zones in mm.
# Staphylococcus aureus = conditions: filter paper with 20 μl test substance; 18 to 24 h at 37° C.
# Protocol: as §1, §2
# [1] = tested on: Staphylococcus epidermidis; conditions: filter paper with 20 μl test substance; 18 to 24 h at 37° C.
# Protocol: as §1, §2
substance,measurement,setting,value
Fructose caprate,"Inhibition zones, Propionibacterium acnes",Propionibacterium acnes,14 mm
same,"Inhibition zones, Staphylococcus aureus",Staphylococcus aureus,10 mm
same,"Inhibition zones, Staphylococcus epidermidis",[1],9 mm
